In PubChem BioAssay AID330 (DTP/NCI, 2004):
“And” between values parts separate entries of the source, which are not always exact repeats. Equal values may be shown once. Inconclusive results and toxic doses are left out.

System: P388 leukemia ip, CD2F1 mice, survival T/C
Assay: NCI In Vivo Anticancer Drug Screen. Data for tumor model P388 Leukemia (intraperitoneal) in CD2F1 (CDF1) mice
Conditions: endpoint: median survival time, higher = longer survival
Method in brief: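 Mice carrying the transplanted tumor received test compound or vehicle. Survival was recorded in each group, and the value is the treated-group measurement divided by that of the vehicle-treated control group.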

[1] = dose: 60.0 mg/kg/injection, schedule: Q01DX005 (ip), vehicle: saline with Tween-80
[2] = dose: 50.0 mg/kg/injection, schedule: Q01DX009 (ip), vehicle: Klucel (hydroxypropylcellulose) (HPC)
[3] = dose: 100.0 mg/kg/injection, schedule: Q01DX009 (ip), vehicle: Klucel (hydroxypropylcellulose) (HPC)
[4] = dose: 50.0 mg/kg/injection, schedule: Q04DX003 (ip), vehicle: saline with Tween-80
[5] = dose: 100.0 mg/kg/injection, schedule: Q04DX003 (ip), vehicle: saline with Tween-80

CC[C@@]12C[C@H]3CN(CCc4c([nH]c5ccccc45)[C@@](C(=O)OC)(c4cc5c(cc4OC)N(C)[C@H]4[C@@](O)(C(=O)OC)[C@H](OC(C)=O)[C@]6(CC)C=CCN7CC[C@]54[C@@H]76)C3O1)C2 (stereo partly specified)
T/C (dose: 0.5 mg/kg/injection, schedule: Q01DX001 (ip), vehicle: distilled water + Tween-80): 103 % of control
T/C (dose: 0.5 mg/kg/injection, schedule: Q01DX001 (ip), vehicle: water): 98 % of control
T/C (dose: 1.0 mg/kg/injection, schedule: Q01DX001 (ip), vehicle: distilled water + Tween-80): 100 % of control and 101 % of control
T/C (dose: 1.0 mg/kg/injection, schedule: Q01DX001 (ip), vehicle: water): 96 % of control
T/C (dose: 1.0 mg/kg/injection, schedule: Q01DX009 (ip), vehicle: distilled water + alcohol): 176 % of control
T/C (dose: 2.0 mg/kg/injection, schedule: Q01DX001 (ip), vehicle: distilled water + Tween-80): 100 % of control
T/C (dose: 2.0 mg/kg/injection, schedule: Q01DX001 (ip), vehicle: water): 97 % of control
T/C (dose: 2.0 mg/kg/injection, schedule: Q01DX009 (ip), vehicle: distilled water + alcohol): 176 % of control
T/C (dose: 4.0 mg/kg/injection, schedule: Q01DX001 (ip), vehicle: distilled water + Tween-80): 100 % of control and 108 % of control
T/C (dose: 4.0 mg/kg/injection, schedule: Q01DX001 (ip), vehicle: water): 105 % of control
T/C (dose: 4.0 mg/kg/injection, schedule: Q01DX009 (ip), vehicle: distilled water + alcohol): 168 % of control
T/C (dose: 8.0 mg/kg/injection, schedule: Q01DX001 (ip), vehicle: distilled water + Tween-80): 100 % of control and 93 % of control
T/C (dose: 8.0 mg/kg/injection, schedule: Q01DX001 (ip), vehicle: water): 108 % of control
T/C (dose: 16.0 mg/kg/injection, schedule: Q01DX001 (ip), vehicle: distilled water + Tween-80): 96 % of control
T/C (dose: 32.0 mg/kg/injection, schedule: Q01DX001 (ip), vehicle: distilled water + Tween-80): 102 % of control

COc1cc2c(cc1OC)C(=O)c1nccc3ccc(OC)c(c13)O2
T/C (dose: 6.75 mg/kg/injection, schedule: Q01DX005 (ip), vehicle: Klucel (hydroxypropylcellulose) (HPC)): 100 % of control
T/C (dose: 13.5 mg/kg/injection, schedule: Q01DX005 (ip), vehicle: Klucel (hydroxypropylcellulose) (HPC)): 92 % of control
T/C (dose: 27.0 mg/kg/injection, schedule: Q01DX005 (ip), vehicle: Klucel (hydroxypropylcellulose) (HPC)): 101 % of control
T/C (dose: 54.0 mg/kg/injection, schedule: Q01DX005 (ip), vehicle: Klucel (hydroxypropylcellulose) (HPC)): 92 % of control

O=S(=O)(O)c1cc2cc(S(=O)(=O)O)c3nnc4cc(S(=O)(=O)O)cc5cc(S(=O)(=O)O)c(nnc6cc(S(=O)(=O)O)cc7cc(S(=O)(=O)O)c(nnc(c1)c2c3O)c(O)c76)c(O)c54
T/C (dose: 30.0 mg/kg/injection, schedule: Q01DX005 (ip), vehicle: saline with Tween-80): 93 % of control
T/C [1]: 106 % of control and 91 % of control

NC(=O)c1nn[nH]n1
T/C [2]: 97 % of control
T/C [3]: 100 % of control

CC[C@@]1(O)C(=O)OCc2c1cc1n(c2=O)Cc2cc3cc(OC)ccc3nc2-1
T/C (dose: 1.57 mg/kg/injection, schedule: Q04DX003 (ip), vehicle: other): 165 % of control
T/C (dose: 3.13 mg/kg/injection, schedule: Q04DX003 (ip), vehicle: other): 98 % of control

O=C(O)/C=N/NS(=O)(=O)c1cccc([N+](=O)[O-])c1
T/C (dose: 25.0 mg/kg/injection, schedule: Q01DX009 (ip), vehicle: other): 118 % of control and 119 % of control and 122 % of control
T/C (dose: 50.0 mg/kg/injection, schedule: Q01DX009 (ip), vehicle: other): 117 % of control
T/C (dose: 200.0 mg/kg/injection, schedule: Q01DX009 (ip), vehicle: other): 160 % of control

O=S(=O)(Nc1cccnc1)c1ccccc1
T/C [1]: 106 % of control
T/C (dose: 120.0 mg/kg/injection, schedule: Q01DX005 (ip), vehicle: saline with Tween-80): 100 % of control
T/C (dose: 240.0 mg/kg/injection, schedule: Q01DX005 (ip), vehicle: saline with Tween-80): 105 % of control

COc1cc(=O)cc2n(c1=O)CCC2
T/C (dose: 60.0 mg/kg/injection, schedule: Q01DX005 (ip), vehicle: saline): 94 % of control
T/C (dose: 120.0 mg/kg/injection, schedule: Q01DX005 (ip), vehicle: saline): 94 % of control
T/C (dose: 240.0 mg/kg/injection, schedule: Q01DX005 (ip), vehicle: saline): 92 % of control

NC(=S)N/N=C/c1ccc(C(F)(F)F)cn1
T/C (dose: 3.8 mg/kg/injection, schedule: Q01DX009 (ip), vehicle: Klucel (hydroxypropylcellulose) (HPC)): 96 % of control
T/C (dose: 5.8 mg/kg/injection, schedule: Q01DX009 (ip), vehicle: Klucel (hydroxypropylcellulose) (HPC)): 93 % of control
T/C (dose: 6.0 mg/kg/injection, schedule: Q01DX009 (ip), vehicle: Klucel (hydroxypropylcellulose) (HPC)): 107 % of control
T/C (dose: 8.8 mg/kg/injection, schedule: Q01DX009 (ip), vehicle: Klucel (hydroxypropylcellulose) (HPC)): 93 % of control
T/C (dose: 8.9 mg/kg/injection, schedule: Q01DX009 (ip), vehicle: Klucel (hydroxypropylcellulose) (HPC)): 114 % of control
T/C (dose: 13.3 mg/kg/injection, schedule: Q01DX009 (ip), vehicle: Klucel (hydroxypropylcellulose) (HPC)): 114 % of control and 93 % of control
T/C (dose: 20.0 mg/kg/injection, schedule: Q01DX009 (ip), vehicle: Klucel (hydroxypropylcellulose) (HPC)): 101 % of control and 121 % of control
T/C (dose: 30.0 mg/kg/injection, schedule: Q01DX009 (ip), vehicle: Klucel (hydroxypropylcellulose) (HPC)): 114 % of control

COc1cccc(-n2c(SC)nccc2=O)c1
T/C (dose: 100.0 mg/kg/injection, schedule: Q04DX003 (ip), vehicle: Klucel (hydroxypropylcellulose) (HPC)): 100 % of control
T/C (dose: 200.0 mg/kg/injection, schedule: Q04DX003 (ip), vehicle: Klucel (hydroxypropylcellulose) (HPC)): 101 % of control
T/C (dose: 400.0 mg/kg/injection, schedule: Q04DX003 (ip), vehicle: Klucel (hydroxypropylcellulose) (HPC)): 100 % of control

CCCCCCC([Se]C)C(O)(CCC)CCC (stereo unspecified)
T/C (dose: 25.0 mg/kg/injection, schedule: Q04DX003 (ip), vehicle: saline with Tween-80): 100 % of control
T/C [4]: 100 % of control
T/C [5]: 91 % of control

O=C1c2cccc3cc([N+](=O)[O-])cc(c23)C(=O)N1CCN1CCN(CCN2C(=O)c3cccc4cc([N+](=O)[O-])cc(c34)C2=O)CC1
T/C (dose: 100.0 mg/kg/injection, schedule: Q04DX002 (ip), vehicle: saline with Tween-80): 95 % of control
T/C (dose: 200.0 mg/kg/injection, schedule: Q04DX002 (ip), vehicle: saline with Tween-80): 98 % of control
T/C (dose: 400.0 mg/kg/injection, schedule: Q04DX002 (ip), vehicle: saline with Tween-80): 90 % of control

CC(c1c[nH]c2ccccc12)N1CCCCC1 (stereo unspecified)
T/C (dose: 12.5 mg/kg/injection, schedule: Q01DX009 (ip), vehicle: Klucel (hydroxypropylcellulose) (HPC)): 109 % of control
T/C (dose: 25.0 mg/kg/injection, schedule: Q01DX009 (ip), vehicle: Klucel (hydroxypropylcellulose) (HPC)): 115 % of control
T/C [2]: 113 % of control

CC1=NCc2nnn(Cc3ccccc3)c2N1
T/C [2]: 100 % of control
T/C [3]: 95 % of control
T/C (dose: 200.0 mg/kg/injection, schedule: Q01DX009 (ip), vehicle: Klucel (hydroxypropylcellulose) (HPC)): 103 % of control

Cc1[nH]nc2c(Cc3ccc([N+](=O)[O-])cc3)n[nH]c(=O)c12
T/C (dose: 100.0 mg/kg/injection, schedule: Q04DX002 (ip), vehicle: Klucel (hydroxypropylcellulose) (HPC)): 92 % of control
T/C (dose: 200.0 mg/kg/injection, schedule: Q04DX002 (ip), vehicle: Klucel (hydroxypropylcellulose) (HPC)): 87 % of control
T/C (dose: 400.0 mg/kg/injection, schedule: Q04DX002 (ip), vehicle: Klucel (hydroxypropylcellulose) (HPC)): 92 % of control

O=C(CC(O)(C(F)(F)F)C(F)(F)F)c1cccs1
T/C [4]: 116 % of control
T/C [5]: 100 % of control

FC(F)C(F)(F)C(F)(F)C(F)(F)COCC1(COCC(F)(F)C(F)(F)C(F)(F)C(F)F)COC1
T/C (dose: 50.0 mg/kg/injection, schedule: Q01DX009 (ip), vehicle: saline with Tween-80): 100 % of control
T/C (dose: 100.0 mg/kg/injection, schedule: Q01DX009 (ip), vehicle: saline with Tween-80): 106 % of control
T/C (dose: 200.0 mg/kg/injection, schedule: Q01DX009 (ip), vehicle: saline with Tween-80): 109 % of control

COC(=O)C(O)(C(=O)OC)C1=C(N)C(=O)c2ccccc2C1=O
T/C (dose: 50.0 mg/kg/injection, schedule: Q01DX005 (ip), vehicle: saline): 111 % of control
T/C (dose: 100.0 mg/kg/injection, schedule: Q01DX005 (ip), vehicle: saline): 123 % of control

Nc1nc(=O)nc2[nH]c3c4cccc5cccc(c3nc12)c54 (tested in a mixture with another compound)
T/C (dose: 12.5 mg/kg/injection, schedule: Q01DX005 (ip), vehicle: Klucel (hydroxypropylcellulose) (HPC)): 92 % of control and 98 % of control
T/C (dose: 25.0 mg/kg/injection, schedule: Q01DX005 (ip), vehicle: Klucel (hydroxypropylcellulose) (HPC)): 101 % of control and 104 % of control
T/C (dose: 50.0 mg/kg/injection, schedule: Q01DX005 (ip), vehicle: Klucel (hydroxypropylcellulose) (HPC)): 100 % of control and 106 % of control and 112 % of control
T/C (dose: 100.0 mg/kg/injection, schedule: Q01DX005 (ip), vehicle: Klucel (hydroxypropylcellulose) (HPC)): 116 % of control
